Among the data in patent publication US20100063047A1 (KALYPSYS, INC., priority 2008, published 2010) are EC50 values, retold here.

Structures are written as SMILES.

In one experiment the target is T1, human H4 (Homo sapiens, UniProt Q9H3N8).
T1 construct: host or cells: CHO-K1, also expressing mitochondrion-targeted aequorin and human Gα16
Put plainly: In vitro histamine H4 receptor cell-based aequorin bioluminescence antagonist assay. Conditions: CHO-K1 cells expressing human H4, aequorin and Gα16; histamine at EC80. As for the experimental part: In vitro Histamine Receptor Cell-Based Assays
The cell-based assays utilize an aequorin dependent bioluminescence signal. Doubly-transfected, stable CHO—K1 cell lines expressing human H1 or H4, mitochondrion-targeted aequorin, and (H4 only) human G protein Gα16 are obtained from Perkin-Elmer. Cells are maintained in F12 (Ham's) growth medium, containing 10% (vol./vol.) fetal bovine serum, penicillin (100 IU/mL), streptomycin (0.1 mg/mL), zeocin (0.25 mg/mL) and geneticin (0.40 mg/mL). Cell media components are from Invitrogen, Inc. One day prior to assay, the growth medium is replaced with the same, excluding zeocin and geneticin.
For assay preparation, growth medium is aspirated, and cells are rinsed with calcium-free, magnesium-free phosphate-buffered saline, followed by two to three minute incubation in Versene (Invitrogen, Inc.) at 37° C. Assay medium (DMEM:F12 [50:50], phenol-red free, containing 1 mg/mL protease-free bovine serum albumin) is added to collect the released cells, which are then centrifuged. The cell pellet is re-suspended in assay medium, centrifuged once more, and re-suspended in assay medium to a final density of 5×10^6 cells/mL. Coelenterazine-h dye (500 μM in ethanol) is added to a final concentration of 5 μM, and mixed immediately. The conical tube containing the cells is then wrapped with foil to protect the light-sensitive dye. The cells are incubated for four hours further at room temperature (approximately 21° C.) with end-over-end rotation to keep them in suspension.
Just before assay, the dye-loaded cells are diluted to 0.75×10^6 cells/mL (H1 receptor) or 1.5×10^6 cells/mL (H4 receptor) with additional assay medium. Cells are dispensed to 1536 well micro-titer plates at 3 μL/well. To assay receptor antagonism, 60 nl of 100× concentration test compounds in 100% dimethyl sulfoxide (DMSO) are dispensed to the wells, one compound per well, by passive pin transfer, and the plates are incubated for 15 minutes at room temperature. […] The pipette dispenses 3 μL/well of agonist (histamine, at twice the final concentration, where final concentration is a previously determined EC80) in assay medium, with concurrent bioluminescence detection. Agonist activity of test compounds is excluded by separate assays that measure response to test compounds immediately, without added histamine agonist.
CCD image capture on the Lumilux includes a 5 second baseline read prior to agonist addition, and generally a 40 second read per plate after agonist addition. A decrease in bioluminescence signal (measured either as area-under-the-curve, or maximum signal amplitude minus minimum signal amplitude) correlates with receptor antagonism in a dose dependent manner. The negative control is DMSO lacking any test compound. For antagonist assays, the positive controls are diphenhydramine (2-Diphenylmethoxy-N,N-dimethylethylamine, 10 μM final concentration, H1 receptor) or JNJ7777120 (1-[(5-Chloro-1H-indol-2-yl)carbonyl]-4-methyl-piperazine, 10 μM final concentration, H4 receptor). Efficacy is measured as a percentage of positive control activity.

A further experiment concerns the target T2, human H1 (Homo sapiens, UniProt P35367).
T2 construct: host or cells: CHO-K1, also expressing mitochondrion-targeted aequorin
Put plainly: In vitro histamine H1 receptor cell-based aequorin bioluminescence antagonist assay. Conditions: CHO-K1 cells expressing human H1 and aequorin; histamine at EC80; read-out: H1 Antagonist EC50. In a few lines: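 CHO-K1 cells stably expressing human H1 or H4 plus mitochondrial aequorin (H4 also with Gα16), loaded with 5 μM coelenterazine-h for 4 h at ~21 °C. Compounds preincubated 15 min at room temperature, then histamine at EC80 added.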

T1 sequence (Q9H3N8 whole entry): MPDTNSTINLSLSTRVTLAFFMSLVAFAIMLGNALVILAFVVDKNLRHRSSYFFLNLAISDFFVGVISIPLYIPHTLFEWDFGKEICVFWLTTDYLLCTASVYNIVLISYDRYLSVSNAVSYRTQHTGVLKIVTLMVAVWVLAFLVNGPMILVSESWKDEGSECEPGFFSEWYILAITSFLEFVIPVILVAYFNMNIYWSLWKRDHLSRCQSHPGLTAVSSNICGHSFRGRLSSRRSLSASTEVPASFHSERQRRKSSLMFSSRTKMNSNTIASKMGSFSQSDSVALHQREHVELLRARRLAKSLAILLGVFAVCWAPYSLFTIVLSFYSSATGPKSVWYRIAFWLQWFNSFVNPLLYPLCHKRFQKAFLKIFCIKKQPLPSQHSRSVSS
T2 sequence (P35367 whole entry): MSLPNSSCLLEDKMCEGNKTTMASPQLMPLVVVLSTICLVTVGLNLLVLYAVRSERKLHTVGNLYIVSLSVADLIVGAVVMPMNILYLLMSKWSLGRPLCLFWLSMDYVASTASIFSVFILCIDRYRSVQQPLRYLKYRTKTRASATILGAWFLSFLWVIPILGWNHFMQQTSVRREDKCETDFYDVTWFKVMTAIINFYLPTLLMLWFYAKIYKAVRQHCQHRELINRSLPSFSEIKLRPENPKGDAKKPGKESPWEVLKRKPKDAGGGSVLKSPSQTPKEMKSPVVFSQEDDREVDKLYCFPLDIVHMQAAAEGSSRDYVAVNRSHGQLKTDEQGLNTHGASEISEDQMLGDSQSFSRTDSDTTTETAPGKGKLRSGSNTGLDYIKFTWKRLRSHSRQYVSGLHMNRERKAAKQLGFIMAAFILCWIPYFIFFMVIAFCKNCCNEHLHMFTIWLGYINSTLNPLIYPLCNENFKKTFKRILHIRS

A word on the EC50: it is the concentration giving half of the maximal effect. As to `Cc1csc2ncnc(C(=O)NCc3ccc(Cl)cc3)c12` [Example 34, N-(4-chlorobenzyl)-5-methylthieno[2,3-d]pyrimidine-4-carboxamide], the EC50 on human H4 and at human H1 was greater than 10 µM each time.
With `Cc1csc2ncnc(CNCc3ccc(Cl)cc3)c12` [Example 35, N-(4-chlorobenzyl)-1-(5-methylthieno[2,3-d]pyrimidin-4-yl)methanamine], the concentration giving a half-maximal response (EC50) at human H4 and on human H1 was greater than 10 µM throughout.
As to `CNc1ncnc2scc(C)c12` [Example 49, N,5-dimethylthieno[2,3-d]pyrimidin-4-amine], the 50% effective concentration (EC50) on human H4 and at human H1 was greater than 10 µM throughout.
For the compound `CCNc1ncnc2scc(C)c12` [Example 50, N-ethyl-5-methylthieno[2,3-d]pyrimidin-4-amine], the 50% effective concentration (EC50) on human H4 and on human H1 was greater than 10 µM in each case.
With `C#CCNc1ncnc2scc(C)c12` [Example 51, 5-methyl-N-(prop-2-yn-1-yl)thieno[2,3-d]pyrimidin-4-amine], the EC50 on human H4 and on human H1 was greater than 10 µM each time.
As to `Cc1csc2ncnc(NCC#N)c12` [Example 52, 2-({5-methylthieno[2,3-d]pyrimidin-4-yl}amino)acetonitrile], the half-maximal effective concentration (EC50) on human H4 and at human H1 was greater than 10 µM in each case.
On to `Cc1csc2ncnc(NC3CC3)c12` [Example 53, N-cyclopropyl-5-methylthieno[2,3-d]pyrimidin-4-amine], for which the 50% effective concentration (EC50) on human H4 and on human H1 was greater than 10 µM in each case.
In the case of `CCCNc1ncnc2scc(C)c12` [Example 54, 5-methyl-N-propylthieno[2,3-d]pyrimidin-4-amine], the 50% effective concentration (EC50) on human H4 and on human H1 was greater than 10 µM throughout.
Take `Cc1csc2ncnc(NCCN)c12` [Example 55, N-(2-aminoethyl)-5-methylthieno[2,3-d]pyrimidin-4-amine]: the concentration for a half-maximal effect (EC50) on human H4 and at human H1 was greater than 10 µM each time.
For the compound `Cc1csc2ncnc(NCCO)c12` [Example 56, 2-({5-methylthieno[2,3-d]pyrimidin-4-yl}amino)ethan-1-ol], the EC50 on human H4 and on human H1 was greater than 10 µM each time.
As for `Cc1csc2ncnc(NCCC#N)c12` [Example 57, 3-({5-methylthieno[2,3-d]pyrimidin-4-yl}amino)propanenitrile], the EC50 at human H4 and at human H1 was greater than 10 µM each time.
For the compound `CCC(C)Nc1ncnc2scc(C)c12` (stereo not shown) [Example 60, N-(butan-2-yl)-5-methylthieno[2,3-d]pyrimidin-4-amine], the EC50 at human H4 and on human H1 was greater than 10 µM in each case.
Consider `Cc1csc2ncnc(NCC(C)C)c12` [Example 61, 5-methyl-N-(2-methylpropyl)thieno[2,3-d]pyrimidin-4-amine], for which the concentration for a half-maximal effect (EC50) on human H4 and at human H1 was greater than 10 µM in each case.
For `Cc1csc2ncnc(NCCCO)c12` [Example 62, 3-({5-methylthieno[2,3-d]pyrimidin-4-yl}amino)propan-1-ol], the concentration giving a half-maximal response (EC50) on human H4 and on human H1 was greater than 10 µM each time.
In the case of `Cc1csc2ncnc(NC(C)CO)c12` (stereo not shown) [Example 63, 2-({5-methylthieno[2,3-d]pyrimidin-4-yl}amino)propan-1-ol], the EC50 at human H4 and at human H1 was greater than 10 µM in each case.
Regarding `COCCNc1ncnc2scc(C)c12` [Example 64, N-(2-methoxyethyl)-5-methylthieno[2,3-d]pyrimidin-4-amine], the EC50 at human H4 and at human H1 was greater than 10 µM each time.
Consider `Cc1csc2ncnc(NCCN(C)C)c12` [Example 70, dimethyl[2-({5-methylthieno[2,3-d]pyrimidin-4-yl}amino)ethyl]amine], for which the EC50 on human H4 and on human H1 was greater than 10 µM throughout.
Regarding `Cc1csc2ncnc(NCCCCO)c12` [Example 74, 4-({5-methylthieno[2,3-d]pyrimidin-4-yl}amino)butan-1-ol], the EC50 at human H4 and at human H1 was greater than 10 µM each time.
Turning to `Cc1csc2ncnc(NC3CONC3=O)c12` (stereo not shown) [Example 80, 4-({5-methylthieno[2,3-d]pyrimidin-4-yl}amino)-1,2-oxazolidin-3-one], the EC50 at human H4 and at human H1 was greater than 10 µM in each case.
For `Cc1csc2ncnc(NN3CCOCC3)c12` [Example 81, N-{5-methylthieno[2,3-d]pyrimidin-4-yl}morpholin-4-amine], the EC50 on human H4 and on human H1 was greater than 10 µM throughout.
`Cc1csc2ncnc(NCc3cccnc3)c12` [Example 84, 5-methyl-N-(pyridin-3-ylmethyl)thieno[2,3-d]pyrimidin-4-amine]: the EC50 at human H4 and on human H1 was greater than 10 µM throughout.
Regarding `Cc1csc2ncnc(NCc3ccncc3)c12` [Example 86, 5-methyl-N-(pyridin-4-ylmethyl)thieno[2,3-d]pyrimidin-4-amine], the EC50 at human H4 and on human H1 was greater than 10 µM in each case.
With `Cc1csc2ncnc(NCCN3CCCC3)c12` [Example 92, 5-methyl-N-[2-(pyrrolidin-1-yl)ethyl]thieno[2,3-d]pyrimidin-4-amine], the EC50 at human H4 and on human H1 was greater than 10 µM each time.
For the compound `Cc1csc2ncnc(NN3CCN(C)CC3)c12` [Example 93, 4-methyl-N-{5-methylthieno[2,3-d]pyrimidin-4-yl}piperazin-1-amine], the concentration giving a half-maximal response (EC50) on human H4 and at human H1 was greater than 10 µM throughout.
As for `CCN(CC)CCNc1ncnc2scc(C)c12` [Example 94, diethyl[2-({5-methylthieno[2,3-d]pyrimidin-4-yl}amino)ethyl]amine], the half-maximal effective concentration (EC50) at human H4 and at human H1 was greater than 10 µM in each case.
Take `Cc1cnc(CNc2ncnc3scc(C)c23)cn1` [Example 101, 5-methyl-N-[(5-methylpyrazin-2-yl)methyl]thieno[2,3-d]pyrimidin-4-amine]: the 50% effective concentration (EC50) on human H4 and on human H1 was greater than 10 µM in each case.
As for `Cc1csc2ncnc(NCCCn3ccnc3)c12` [Example 105, N-[3-(1H-imidazol-1-yl)propyl]-5-methylthieno[2,3-d]pyrimidin-4-amine], the EC50 at human H4 and at human H1 was greater than 10 µM in each case.
Regarding `Cc1csc2ncnc(NCCC3CCCN3C)c12` (stereo not shown) [Example 106, 5-methyl-N-[2-(1-methylpyrrolidin-2-yl)ethyl]thieno[2,3-d]pyrimidin-4-amine], the EC50 at human H4 and at human H1 was greater than 10 µM throughout.
As to `Cc1csc2ncnc(NCCN3CCCCC3)c12` [Example 107, 5-methyl-N-[2-(piperidin-1-yl)ethyl]thieno[2,3-d]pyrimidin-4-amine], the concentration giving a half-maximal response (EC50) on human H4 and at human H1 was greater than 10 µM throughout.
`Cc1csc2ncnc(NCCN3CCOCC3)c12` [Example 109, 5-methyl-N-[2-(morpholin-4-yl)ethyl]thieno[2,3-d]pyrimidin-4-amine]: the EC50 at human H4 and at human H1 was greater than 10 µM throughout.
For the compound `Cc1ccc([C@@H](C)Nc2ncnc3scc(C)c23)cc1` [Example 115, 5-methyl-N-[(1R)-1-(4-methylphenyl)ethyl]thieno[2,3-d]pyrimidin-4-amine], the concentration giving a half-maximal response (EC50) at human H4 and on human H1 was greater than 10 µM in each case.
`Cc1csc2ncnc(NC(C)Cc3ccncc3)c12` (stereo not shown) [Example 120, 5-methyl-N-[1-(pyridin-4-yl)propan-2-yl]thieno[2,3-d]pyrimidin-4-amine]: the EC50 on human H4 and at human H1 was greater than 10 µM throughout.
Turning to `Cc1csc2ncnc(NCCCN3CCCC3=O)c12` [Example 132, 1-[3-({5-methylthieno[2,3-d]pyrimidin-4-yl}amino)propyl]pyrrolidin-2-one], the EC50 on human H4 and on human H1 was greater than 10 µM throughout.
`Cc1csc2ncnc(NCCN(C(C)C)C(C)C)c12` [Example 137]: the EC50 on human H4 and at human H1 was greater than 10 µM in each case.
For `Cc1csc2ncnc(NC3CCCc4ccccc43)c12` (stereo not shown) [Example 138, 5-methyl-N-(1,2,3,4-tetrahydronaphthalen-1-yl)thieno[2,3-d]pyrimidin-4-amine], the EC50 at human H4 and on human H1 was greater than 10 µM throughout.
